From ChEMBL document CHEMBL1201862, “PubChem BioAssay data set” (2004)
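Interpolation was linear, between the two tested concentrations surrounding the appropriate level; five concentrations were tested over 48 hours in 96-well plates. GI50: concentration for 50% inhibition of growth.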 Calls of active or inactive are those of the source. No stated cut-off is given here; in the data, active = GI50 up to about 1.1 µM and inactive = higher.

How the values were obtained:
Experiment in all cases: DTP human tumour cell line panel, 48 h
NCI-H226 = tested on: NCI-H226
HCT-15 = tested on: HCT-15
RXF 393 = tested on: RXF 393
HL-60 = tested on: HL-60
786-0 = tested on: 786-0
OVCAR-8 = tested on: OVCAR-8
SF-268 = tested on: SF-268
SNB-75 = tested on: SNB-75
HOP-62 = tested on: HOP-62
UACC-257 = tested on: UACC-257
HT-29 = tested on: HT-29
NCI/ADR-RES = tested on: NCI/ADR-RES
OVCAR-3 = tested on: OVCAR-3
MCF7 = tested on: MCF7
LOX IMVI = tested on: LOX IMVI
HOP-92 = tested on: HOP-92
NCI-H522 = tested on: NCI-H522
RPMI-8226 = tested on: RPMI-8226
SK-MEL-2 = tested on: SK-MEL-2
MDA-N = tested on: MDA-N

Compound	GI50 (NCI-H226)	GI50 (HCT-15)	GI50 (RXF 393)	GI50 (HL-60)	GI50 (786-0)	GI50 (OVCAR-8)	GI50 (SF-268)	GI50 (SNB-75)	GI50 (HOP-62)	GI50 (UACC-257)	GI50 (HT-29)	GI50 (NCI/ADR-RES)	GI50 (OVCAR-3)	GI50 (MCF7)	GI50 (LOX IMVI)	GI50 (HOP-92)	GI50 (NCI-H522)	GI50 (RPMI-8226)	GI50 (SK-MEL-2)	GI50 (MDA-N)
CS/C(=N\Nc1cnc2ccccc2n1)NS(=O)(=O)c1cc(C)c(Cl)cc1Cl	> 100 µM (inactive)	> 100 µM	> 100 µM (inactive)	88.7 µM (inactive)	> 100 µM (inactive)	> 100 µM (inactive)	> 100 µM (inactive)	43.2 µM (inactive)	> 100 µM (inactive)	> 100 µM (inactive)	> 100 µM (inactive)	84.7 µM (inactive)	59.6 µM (inactive)	65.6 µM (inactive)	61.1 µM (inactive)	15.5 µM (inactive)	> 100 µM (inactive)			
Cc1cn2c(/C=N/NC(=N)N)c(-c3cccc([N+](=O)[O-])c3)nc2s1	1.91 µM (inactive)	4.41 µM	1.15 µM (inactive)	1.92 µM (inactive)	1.47 µM (inactive)	1.78 µM (inactive)	1.08 µM (active)		1.38 µM (inactive)	2.11 µM (inactive)	0.514 µM (active)	28.4 µM (inactive)	1.26 µM (inactive)	0.625 µM (active)	0.849 µM (active)	1.64 µM (inactive)	2.08 µM (inactive)	3.2 µM (inactive)	1.96 µM (inactive)	
CCCCCCCCCCCCCCCCCCNC(=S)N/C=C1\C(=O)Nc2ccccc2C1=O	22.9 µM (inactive)	15.6 µM	22.2 µM (inactive)	4.92 µM (inactive)	15.6 µM (inactive)	15.6 µM (inactive)	13.6 µM (inactive)	13.2 µM (inactive)	15.6 µM (inactive)	17.1 µM (inactive)	16.9 µM (inactive)	18.4 µM (inactive)	18.5 µM (inactive)	20.2 µM (inactive)	16.3 µM (inactive)	15.8 µM (inactive)			21.4 µM (inactive)	17.4 µM (inactive)
COP1(=O)NCc2ncccc2O1 (stereo unspecified)	> 100 µM (inactive)	> 100 µM	> 100 µM (inactive)		> 100 µM (inactive)	> 100 µM (inactive)		> 100 µM (inactive)	> 100 µM (inactive)	> 100 µM (inactive)	> 100 µM (inactive)	> 100 µM (inactive)	> 100 µM (inactive)	> 100 µM (inactive)	> 100 µM (inactive)	> 100 µM (inactive)		> 100 µM (inactive)	> 100 µM (inactive)	> 100 µM (inactive)
CO[C@@]12C[C@H](CNC(=O)c3ccc[nH]3)O[C@@H]1NC(=O)N2	> 100 µM (inactive)	> 100 µM		> 100 µM (inactive)	> 100 µM (inactive)	> 100 µM (inactive)	> 100 µM (inactive)	> 100 µM (inactive)	> 100 µM (inactive)	> 100 µM (inactive)	> 100 µM (inactive)	> 100 µM (inactive)	> 100 µM (inactive)	> 100 µM (inactive)	> 100 µM (inactive)	> 100 µM (inactive)	> 100 µM (inactive)	> 100 µM (inactive)	> 100 µM (inactive)	
Brc1ccc2[nH]cc([C@H]3CN[C@@H](c4c[nH]c5ccc(Br)cc45)CN3)c2c1	2.45 µM (inactive)	2.04 µM	2.65 µM (inactive)	1.77 µM (inactive)	2.29 µM (inactive)	1.79 µM (inactive)	2.65 µM (inactive)	1.83 µM (inactive)	3.37 µM (inactive)	3.64 µM (inactive)	1.97 µM (inactive)	1.93 µM (inactive)	1.79 µM (inactive)	1.58 µM (inactive)	1.44 µM (inactive)	1.87 µM (inactive)	1.79 µM (inactive)	2.16 µM (inactive)	2.09 µM (inactive)	
CSc1ncc2c(n1)C(C#N)C1Sc3ccccc3N1C2=O (stereo unspecified)	> 100 µM (inactive)	> 100 µM	65 µM (inactive)		76.9 µM (inactive)	> 100 µM (inactive)	44.9 µM (inactive)	22.9 µM (inactive)	37.5 µM (inactive)	> 100 µM (inactive)	> 100 µM (inactive)	> 100 µM (inactive)	> 100 µM (inactive)		> 100 µM (inactive)	80 µM (inactive)	62.2 µM (inactive)	> 100 µM (inactive)		> 100 µM (inactive)
CCCCCCCCCCCCCCCCC(C(=O)O)C(O)(CC(=O)O)C(=O)O (stereo unspecified)	22.6 µM (inactive)	21.5 µM	22.1 µM (inactive)	14.8 µM (inactive)	35.2 µM (inactive)	39.1 µM (inactive)	28.6 µM (inactive)	20 µM (inactive)	17.2 µM (inactive)	34.1 µM (inactive)	21.2 µM (inactive)	57 µM (inactive)	18.5 µM (inactive)	34.9 µM (inactive)	26.5 µM (inactive)			26.7 µM (inactive)	18.9 µM (inactive)	47 µM (inactive)
CO/C(=N\N=C\c1ccc(OC)cc1OC)c1ccncc1	> 10 µM (inactive)	> 10 µM	> 10 µM (inactive)	> 10 µM (inactive)	> 10 µM (inactive)	> 10 µM (inactive)	> 10 µM (inactive)	> 10 µM (inactive)	> 10 µM (inactive)			> 10 µM (inactive)		> 10 µM (inactive)	> 10 µM (inactive)			> 10 µM (inactive)	> 10 µM (inactive)	
Clc1ccc(/C=c2\nc(-c3ccccc3)n3c2nc2ccccc23)cc1	> 100 µM (inactive)	> 100 µM	28.7 µM (inactive)	> 100 µM (inactive)	56.8 µM (inactive)	32.7 µM (inactive)	34.4 µM (inactive)		38.4 µM (inactive)	> 100 µM (inactive)	> 100 µM (inactive)	28.2 µM (inactive)	51.9 µM (inactive)	> 100 µM (inactive)	> 100 µM (inactive)	> 100 µM (inactive)		> 100 µM (inactive)	> 100 µM (inactive)	
O=C(O)c1cc(NC2=C(Cl)C(=O)c3c(O)ccc(O)c3C2=O)ccc1O	> 10 µM (inactive)	> 10 µM			> 10 µM (inactive)	> 10 µM (inactive)	> 10 µM (inactive)	> 10 µM (inactive)	> 10 µM (inactive)	> 10 µM (inactive)	> 10 µM (inactive)	> 10 µM (inactive)	> 10 µM (inactive)	> 10 µM (inactive)	> 10 µM (inactive)	> 10 µM (inactive)				> 10 µM (inactive)
O=C(c1ccco1)N(C(=S)OCc1ccccn1)c1ccccc1	29.6 µM (inactive)	> 100 µM	30.9 µM (inactive)	> 100 µM (inactive)	> 100 µM (inactive)	> 100 µM (inactive)	> 100 µM (inactive)		16 µM (inactive)	> 100 µM (inactive)	> 100 µM (inactive)	62.5 µM (inactive)	> 100 µM (inactive)	75.3 µM (inactive)	> 100 µM (inactive)			49.3 µM (inactive)	> 100 µM (inactive)	> 100 µM (inactive)
N=C(N)C1CN(CCc2c[nH]c3ccccc23)C(=O)NC1=O (stereo unspecified)	> 100 µM (inactive)	> 100 µM		> 100 µM (inactive)	> 100 µM (inactive)	> 100 µM (inactive)	> 100 µM (inactive)	> 100 µM (inactive)	> 100 µM (inactive)	> 100 µM (inactive)	> 100 µM (inactive)	> 100 µM (inactive)	> 100 µM (inactive)	> 100 µM (inactive)	> 100 µM (inactive)	> 100 µM (inactive)		> 100 µM (inactive)		> 100 µM (inactive)
COC1=CCC=C(C[C@@H]2NCCc3cc(OC)c(OC)cc32)C1	32.1 µM (inactive)	> 100 µM	> 100 µM (inactive)	> 100 µM (inactive)	> 100 µM (inactive)	> 100 µM (inactive)	> 100 µM (inactive)	> 100 µM (inactive)	> 100 µM (inactive)	> 100 µM (inactive)	> 100 µM (inactive)		> 100 µM (inactive)		> 100 µM (inactive)	41.5 µM (inactive)	> 100 µM (inactive)	> 100 µM (inactive)	> 100 µM (inactive)	
O=[N+]([O-])c1ccc(C2c3c(O)nc(O)nc3Oc3nc(O)nc(O)c32)cc1	> 100 µM (inactive)	> 100 µM	8.36 µM (inactive)	33.7 µM (inactive)	> 100 µM (inactive)	> 100 µM (inactive)	> 100 µM (inactive)		> 100 µM (inactive)	> 100 µM (inactive)	> 100 µM (inactive)		> 100 µM (inactive)				17.9 µM (inactive)	28.8 µM (inactive)	> 100 µM (inactive)	> 100 µM (inactive)
O=[As](O)(O)c1cc(/N=N/c2ccc(-c3ccc(/N=N/c4cc([As](=O)(O)O)c(O)cc4O)cc3)cc2)c(O)cc1O	> 100 µM (inactive)	97.1 µM	> 100 µM (inactive)	> 48.8 µM (inactive)	> 100 µM (inactive)	> 100 µM (inactive)	> 100 µM (inactive)	> 100 µM (inactive)	> 100 µM (inactive)	> 100 µM (inactive)	> 95.1 µM (inactive)		> 52.8 µM (inactive)		> 100 µM (inactive)	> 100 µM (inactive)	> 100 µM (inactive)	> 100 µM (inactive)	> 100 µM (inactive)	
